# Measured values: patent US9963442B2, “Pyridones as herbicides” (E I DU PONT DE NEMOURS AND COMPANY, priority 2014, dated 2018)
# Tests used:
# Assay type in all cases: in vivo
# rice (Oryza sativa) = assay: Test B flooded paddy test; set-up: key: 0 = no effect, 100 = complete control; conditions: Flood, 250 g ai/ha applied to paddy water at 2-leaf stage; visually evaluated after 13 to 15 days; scale 0 (no effect) to 100 (complete control)
# Description: (§1) Plant species in the flooded paddy test selected from rice (Oryza sativa), sedge, umbrella (small-flower umbrella sedge, Cyperus difformis), ducksalad (Heteranthera limosa), and barnyardgrass (Echinochloa crus-galli) were grown to the 2-leaf stage for testing. At time of treatment, test pots were flooded to 3 cm above the soil surface, treated by application of test compounds directly to the paddy water, and then maintained at that water depth for the duration of the test. Treated plants and controls were maintained in a greenhouse for 13 to 15 days, after which time all species were compared to controls and visually evaluated. Plant response ratings, summarized in Table B, are based on a scale of 0 to 100 where 0 is no effect and 100 is complete control. A dash (-) response means no test result.
# [1] = system: barnyardgrass (Echinochloa crus-galli); assay: Test B flooded paddy test; set-up: key: 0 = no effect, 100 = complete control; conditions: Flood, 250 g ai/ha applied to paddy water at 2-leaf stage; visually evaluated after 13 to 15 days; scale 0 (no effect) to 100 (complete control)
# Description: as §1
# [2] = system: sedge, umbrella (small-flower umbrella sedge, Cyperus difformis); assay: Test B flooded paddy test; set-up: key: 0 = no effect, 100 = complete control; conditions: Flood, 250 g ai/ha applied to paddy water at 2-leaf stage; visually evaluated after 13 to 15 days; scale 0 (no effect) to 100 (complete control)
# Description: as §1
# [3] = system: ducksalad (Heteranthera limosa); assay: Test B flooded paddy test; set-up: key: 0 = no effect, 100 = complete control; conditions: Flood, 250 g ai/ha applied to paddy water at 2-leaf stage; visually evaluated after 13 to 15 days; scale 0 (no effect) to 100 (complete control)
# Description: as §1
# corn (Zea mays) = assay: Test A postemergence application; conditions: approx. 10 days
# Source text: (§2) Seeds of plant species selected from barnyardgrass (Echinochloa crus-galli), kochia (Kochia scoparia), ragweed (common ragweed, Ambrosia elatior), Italian ryegrass (Lolium multiflorum), giant foxtail (Setaria faberii), and pigweed (Amaranthus retroflexus) were planted into a blend of loam soil and sand and treated preemergence with a directed soil spray using test chemicals formulated in a non-phytotoxic solvent mixture which included a surfactant. At the same time, plants selected from these weed species and also wheat (Triticum aestivum), corn (Zea mays), blackgrass (Alopecurus myosuroides), and galium (catchweed bedstraw, Galium aparine) were planted in pots containing the same blend of loam soil and sand and treated with postemergence applications of test chemicals formulated in the same manner. Plants ranged in height from 2 to 10 cm and were in the one- to two-leaf stage for the postemergence treatment. Treated plants and untreated controls were maintained in a greenhouse for approximately 10 days, after which time all treated plants were compared to untreated controls and visually evaluated for injury. Plant response ratings, summarized in Table A, are based on a 0 to 100 scale where 0 is no effect and 100 is complete control. A dash (-) response means no test result.
# [4] = system: Italian ryegrass (Lolium multiflorum); assay: Test A postemergence application; conditions: approx. 10 days
# Source text: as §2
# [5] = system: barnyardgrass (Echinochloa crus-galli); assay: Test A postemergence application; conditions: approx. 10 days
# Source text: as §2
# kochia (Kochia scoparia) [6] = assay: Test A postemergence application; conditions: approx. 10 days
# Source text: as §2
# [7] = system: wheat (Triticum aestivum); assay: Test A postemergence application; conditions: approx. 10 days
# Source text: as §2
# [8] = system: ragweed (common ragweed, Ambrosia elatior); assay: Test A postemergence application; conditions: approx. 10 days
# Source text: as §2
# [9] = system: galium (catchweed bedstraw, Galium aparine); assay: Test A postemergence application; conditions: approx. 10 days
# Source text: as §2
# [10] = system: pigweed (Amaranthus retroflexus); assay: Test A postemergence application; conditions: approx. 10 days
# Source text: as §2
# [11] = system: giant foxtail (Setaria faberii); assay: Test A postemergence application; conditions: approx. 10 days
# Source text: as §2
# [12] = system: blackgrass (Alopecurus myosuroides); assay: Test A postemergence application; conditions: approx. 10 days
# Source text: as §2
# [13] = system: Italian ryegrass (Lolium multiflorum); assay: Test A preemergence, directed soil spray; conditions: approx. 10 days
# Source text: as §2
# [14] = system: barnyardgrass (Echinochloa crus-galli); assay: Test A preemergence, directed soil spray; conditions: approx. 10 days
# Source text: as §2
# kochia (Kochia scoparia) [15] = assay: Test A preemergence, directed soil spray; conditions: approx. 10 days
# Source text: as §2
# [16] = system: ragweed (common ragweed, Ambrosia elatior); assay: Test A preemergence, directed soil spray; conditions: approx. 10 days
# Source text: as §2
# [17] = system: pigweed (Amaranthus retroflexus); assay: Test A preemergence, directed soil spray; conditions: approx. 10 days
# Source text: as §2
# [18] = system: giant foxtail (Setaria faberii); assay: Test A preemergence, directed soil spray; conditions: approx. 10 days
# Source text: as §2
SMILES,"Plant response rating, Rice (rice (Oryza sativa))","Plant response rating, Barnyardgrass [1]","Plant response rating, Sedge, Umbrella [2]","Plant response rating, Ducksalad [3]","Plant response rating (0 to 100 scale, 0 no effect, 100 complete control), Corn (corn (Zea mays); 31 g ai/ha)","Plant response rating (0 to 100 scale, 0 no effect, 100 complete control), Corn (corn (Zea mays); 125 g ai/ha)","Plant response rating (0 to 100 scale, 0 no effect, 100 complete control), Ryegrass, Italian ([4]; 31 g ai/ha)","Plant response rating (0 to 100 scale, 0 no effect, 100 complete control), Ryegrass, Italian ([4]; 125 g ai/ha)","Plant response rating (0 to 100 scale, 0 no effect, 100 complete control), Barnyardgrass ([5]; 31 g ai/ha)","Plant response rating (0 to 100 scale, 0 no effect, 100 complete control), Barnyardgrass ([5]; 125 g ai/ha)","Plant response rating (0 to 100 scale, 0 no effect, 100 complete control), Kochia (kochia (Kochia scoparia) [6]; 31 g ai/ha)","Plant response rating (0 to 100 scale, 0 no effect, 100 complete control), Kochia (kochia (Kochia scoparia) [6]; 125 g ai/ha)","Plant response rating (0 to 100 scale, 0 no effect, 100 complete control), Wheat ([7]; 31 g ai/ha)","Plant response rating (0 to 100 scale, 0 no effect, 100 complete control), Wheat ([7]; 125 g ai/ha)","Plant response rating (0 to 100 scale, 0 no effect, 100 complete control), Ragweed ([8]; 31 g ai/ha)","Plant response rating (0 to 100 scale, 0 no effect, 100 complete control), Ragweed ([8]; 125 g ai/ha)","Plant response rating (0 to 100 scale, 0 no effect, 100 complete control), Galium ([9]; 31 g ai/ha)","Plant response rating (0 to 100 scale, 0 no effect, 100 complete control), Galium ([9]; 125 g ai/ha)","Plant response rating (0 to 100 scale, 0 no effect, 100 complete control), Pigweed ([10]; 31 g ai/ha)","Plant response rating (0 to 100 scale, 0 no effect, 100 complete control), Pigweed ([10]; 125 g ai/ha)",also measured
O=c1cccc(Oc2ncc(Cl)cn2)n1-c1ncc(C(F)(F)F)cn1 [Compound 5],0,0,75,85,0,10,0,30,0,20,40,60,0,0,30,80,50,90,70,90,"Plant response rating (0 to 100 scale, 0 no effect, 100 complete control), Foxtail, Giant ([11]; 31 g ai/ha): 10; Plant response rating (0 to 100 scale, 0 no effect, 100 complete control), Foxtail, Giant ([11]; 125 g ai/ha): 80; Plant response rating (0 to 100 scale, 0 no effect, 100 complete control), Blackgrass ([12]; 31 g ai/ha): 30; Plant response rating (0 to 100 scale, 0 no effect, 100 complete control), Blackgrass ([12]; 125 g ai/ha): 50; Plant response rating (0 to 100 scale, 0 no effect, 100 complete control), Ryegrass, Italian ([13]; 31 g ai/ha): 0; Plant response rating (0 to 100 scale, 0 no effect, 100 complete control), Ryegrass, Italian ([13]; 125 g ai/ha): 0; Plant response rating (0 to 100 scale, 0 no effect, 100 complete control), Barnyardgrass ([14]; 31 g ai/ha): 0; Plant response rating (0 to 100 scale, 0 no effect, 100 complete control), Barnyardgrass ([14]; 125 g ai/ha): 80; Plant response rating (0 to 100 scale, 0 no effect, 100 complete control), Kochia (kochia (Kochia scoparia) [15]; 31 g ai/ha): 0; Plant response rating (0 to 100 scale, 0 no effect, 100 complete control), Kochia (kochia (Kochia scoparia) [15]; 125 g ai/ha): 100; Plant response rating (0 to 100 scale, 0 no effect, 100 complete control), Ragweed ([16]; 31 g ai/ha): 0; Plant response rating (0 to 100 scale, 0 no effect, 100 complete control), Ragweed ([16]; 125 g ai/ha): 80; Plant response rating (0 to 100 scale, 0 no effect, 100 complete control), Pigweed ([17]; 31 g ai/ha): 90; Plant response rating (0 to 100 scale, 0 no effect, 100 complete control), Pigweed ([17]; 125 g ai/ha): 100; Plant response rating (0 to 100 scale, 0 no effect, 100 complete control), Foxtail, Giant ([18]; 31 g ai/ha): 70; Plant response rating (0 to 100 scale, 0 no effect, 100 complete control), Foxtail, Giant ([18]; 125 g ai/ha): 100"
O=c1cccc(Oc2ncc(Cl)cn2)n1-c1ccc(Cl)cn1 [Compound 8],0,0,65,75,10,20,10,20,10,30,70,90,0,0,30,70,60,70,80,90,"Plant response rating (0 to 100 scale, 0 no effect, 100 complete control), Foxtail, Giant ([11]; 31 g ai/ha): 20; Plant response rating (0 to 100 scale, 0 no effect, 100 complete control), Foxtail, Giant ([11]; 125 g ai/ha): 70; Plant response rating (0 to 100 scale, 0 no effect, 100 complete control), Blackgrass ([12]; 31 g ai/ha): 10; Plant response rating (0 to 100 scale, 0 no effect, 100 complete control), Blackgrass ([12]; 125 g ai/ha): 20; Plant response rating (0 to 100 scale, 0 no effect, 100 complete control), Ryegrass, Italian ([13]; 31 g ai/ha): 0; Plant response rating (0 to 100 scale, 0 no effect, 100 complete control), Ryegrass, Italian ([13]; 125 g ai/ha): 10; Plant response rating (0 to 100 scale, 0 no effect, 100 complete control), Barnyardgrass ([14]; 31 g ai/ha): 0; Plant response rating (0 to 100 scale, 0 no effect, 100 complete control), Barnyardgrass ([14]; 125 g ai/ha): 30; Plant response rating (0 to 100 scale, 0 no effect, 100 complete control), Kochia (kochia (Kochia scoparia) [15]; 31 g ai/ha): 30; Plant response rating (0 to 100 scale, 0 no effect, 100 complete control), Kochia (kochia (Kochia scoparia) [15]; 125 g ai/ha): 100; Plant response rating (0 to 100 scale, 0 no effect, 100 complete control), Ragweed ([16]; 31 g ai/ha): 0; Plant response rating (0 to 100 scale, 0 no effect, 100 complete control), Ragweed ([16]; 125 g ai/ha): 20; Plant response rating (0 to 100 scale, 0 no effect, 100 complete control), Pigweed ([17]; 31 g ai/ha): 70; Plant response rating (0 to 100 scale, 0 no effect, 100 complete control), Pigweed ([17]; 125 g ai/ha): 100; Plant response rating (0 to 100 scale, 0 no effect, 100 complete control), Foxtail, Giant ([18]; 31 g ai/ha): 40; Plant response rating (0 to 100 scale, 0 no effect, 100 complete control), Foxtail, Giant ([18]; 125 g ai/ha): 80"
O=c1cccc(Oc2ncc(Cl)cn2)n1-c1ccc(F)cn1 [Compound 9],0,0,40,60,10,10,0,20,0,10,70,90,0,0,20,40,30,60,50,80,"Plant response rating (0 to 100 scale, 0 no effect, 100 complete control), Foxtail, Giant ([11]; 31 g ai/ha): 0; Plant response rating (0 to 100 scale, 0 no effect, 100 complete control), Foxtail, Giant ([11]; 125 g ai/ha): 20; Plant response rating (0 to 100 scale, 0 no effect, 100 complete control), Blackgrass ([12]; 31 g ai/ha): 0; Plant response rating (0 to 100 scale, 0 no effect, 100 complete control), Blackgrass ([12]; 125 g ai/ha): 10; Plant response rating (0 to 100 scale, 0 no effect, 100 complete control), Ryegrass, Italian ([13]; 31 g ai/ha): 0; Plant response rating (0 to 100 scale, 0 no effect, 100 complete control), Ryegrass, Italian ([13]; 125 g ai/ha): 0; Plant response rating (0 to 100 scale, 0 no effect, 100 complete control), Barnyardgrass ([14]; 31 g ai/ha): 0; Plant response rating (0 to 100 scale, 0 no effect, 100 complete control), Barnyardgrass ([14]; 125 g ai/ha): 0; Plant response rating (0 to 100 scale, 0 no effect, 100 complete control), Kochia (kochia (Kochia scoparia) [15]; 31 g ai/ha): 20; Plant response rating (0 to 100 scale, 0 no effect, 100 complete control), Kochia (kochia (Kochia scoparia) [15]; 125 g ai/ha): 50; Plant response rating (0 to 100 scale, 0 no effect, 100 complete control), Ragweed ([16]; 125 g ai/ha): 70; Plant response rating (0 to 100 scale, 0 no effect, 100 complete control), Pigweed ([17]; 31 g ai/ha): 50; Plant response rating (0 to 100 scale, 0 no effect, 100 complete control), Pigweed ([17]; 125 g ai/ha): 80; Plant response rating (0 to 100 scale, 0 no effect, 100 complete control), Foxtail, Giant ([18]; 31 g ai/ha): 10; Plant response rating (0 to 100 scale, 0 no effect, 100 complete control), Foxtail, Giant ([18]; 125 g ai/ha): 70"
